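Five compound concentrations were applied to cells in 96-well plates for 48 hours; endpoints were derived by simple linear interpolation of the resulting dose-response curve. GI50 is the concentration that inhibits growth by half. The concentration for full growth arrest is given as TGI.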
How the values were obtained:
Test in all cases: inhibition of tumour cell growth, NCI panel, 48 h
[1] = system: OVCAR-5 ovarian
[2] = system: SN12C renal
[3] = system: NCI-H522 lung
[4] = system: SK-MEL-28 melanoma
[5] = system: A498 renal
[6] = system: ACHN renal
[7] = system: MOLT-4 leukemia
[8] = system: NCI-H460 lung
[9] = system: NCI-H23 lung
[10] = system: BT-549 breast
[11] = system: RPMI-8226 leukemia
[12] = system: KM12 colon
[13] = system: HCT-15 colon
[14] = system: SK-MEL-2 melanoma
[15] = system: HT29 colon
[16] = system: SNB-19 CNS
[17] = system: NCI-H226 lung
[18] = system: SF-539 CNS
[19] = system: SR leukemia
[20] = system: 786-0 renal
[21] = system: HOP-62 NSCLC
[22] = system: SNB-75 CNS
[23] = system: M14 melanoma
[24] = system: RXF 393 renal
[25] = system: UACC-257 melanoma
[26] = system: HCT-116 colon
[27] = system: HS 578T breast
[28] = system: OVCAR-3 ovarian
[29] = system: HL-60(TB) leukemia
[30] = system: MDA-MB-231 breast
[31] = system: HOP-92 NSCLC
[32] = system: CAKI-1 renal
[33] = system: DU-145 prostate
[34] = system: MALME-3M melanoma
[35] = system: EKVX NSCLC
[36] = system: TK-10 renal
[37] = system: SK-MEL-5 melanoma
[38] = system: U251 CNS
[39] = system: NCI/ADR-RES ovarian
[40] = system: HCC-2998 colon
[41] = system: SF-268 CNS
[42] = system: SK-OV-3 ovarian
[43] = system: SW-620 colon
[44] = system: UO-31 renal
[45] = system: A549 NSCLC
[46] = system: CCRF-CEM leukemia
[47] = system: IGROV1 ovarian
[48] = system: PC-3 prostate
[49] = system: MDA-MB-435
[50] = system: OVCAR-4 ovarian
[51] = system: UACC-62 melanoma
[52] = system: OVCAR-8 ovarian
[53] = system: T-47D breast
[54] = system: MDA-MB-468 breast
[55] = system: COLO 205 colon

Cn1cc(-c2cc(N)n3nc(-c4cn(C)c5ccccc45)cc3n2)c2cc(Br)ccc21
GI50 [1]: 2.55 µM | TGI [1]: 7.8 µM | GI50 [2]: 1.66 µM | TGI [2]: 3.18 µM | GI50 [3]: 1.55 µM | TGI [3]: 3.21 µM | GI50 [4]: 1.72 µM | TGI [4]: 3.14 µM | GI50 [5]: 1.74 µM | TGI [5]: 3.89 µM | GI50 [6]: 1.78 µM | TGI [6]: 4.05 µM | GI50 [7]: 1.6 µM | TGI [7]: 7.55 µM | GI50 [8]: 1.96 µM | TGI [8]: 4.03 µM | GI50 [9]: 2.36 µM | TGI [9]: 7.02 µM | GI50 [10]: 2.29 µM | TGI [10]: 5.65 µM | GI50 [11]: 2.48 µM | TGI [11]: 8.15 µM | GI50 [12]: 2.02 µM | TGI [12]: 4.66 µM | GI50 [13]: 1.71 µM | TGI [13]: 4.59 µM | GI50 [14]: 1.68 µM | TGI [14]: 3.36 µM | GI50 [15]: 1.7 µM | TGI [15]: 3.25 µM | GI50 [16]: 3.24 µM | TGI [16]: 25.9 µM | GI50 [17]: 25.1 µM | TGI [17]: > 100 µM | GI50 [18]: 1.58 µM | TGI [18]: 3.09 µM | GI50 [19]: 1.7 µM | TGI [19]: 7.3 µM | GI50 [20]: 1.57 µM | TGI [20]: 2.99 µM | GI50 [21]: 2.24 µM | TGI [21]: 6.01 µM | GI50 [22]: 2.41 µM | TGI [22]: 9.59 µM | GI50 [23]: 1.82 µM | TGI [23]: 3.68 µM | GI50 [24]: 1.8 µM | TGI [24]: 3.46 µM | GI50 [25]: 1.73 µM | TGI [25]: 3.34 µM | GI50 [26]: 1.59 µM | TGI [26]: 2.93 µM | GI50 [27]: 2.44 µM | TGI [27]: 5.92 µM | GI50 [28]: 2.22 µM | TGI [28]: 5.16 µM | GI50 [29]: 2.08 µM | TGI [29]: 5.53 µM | GI50 [30]: 1.7 µM | TGI [30]: 3.12 µM | GI50 [31]: 1.48 µM | TGI [31]: 3.16 µM | GI50 [32]: 1.44 µM | TGI [32]: 2.96 µM | GI50 [33]: 4.96 µM | TGI [33]: > 100 µM | GI50 [34]: 1.66 µM | TGI [34]: 3.08 µM | GI50 [35]: 1.75 µM | TGI [35]: 6.71 µM | GI50 [36]: 2.19 µM | TGI [36]: 4.81 µM | GI50 [37]: 1.89 µM | TGI [37]: 3.5 µM | GI50 [38]: 1.79 µM | TGI [38]: 3.65 µM | GI50 [39]: 2.45 µM | TGI [39]: 6.77 µM | GI50 [40]: 1.81 µM | TGI [40]: 3.49 µM | GI50 [41]: 2.66 µM | TGI [41]: 8.95 µM | GI50 [42]: 3.72 µM | TGI [42]: 17.2 µM | GI50 [43]: 2.16 µM | TGI [43]: 5 µM | GI50 [44]: 1.48 µM | TGI [44]: 2.85 µM | GI50 [45]: 2.44 µM | TGI [45]: > 100 µM | GI50 [46]: 2.87 µM | TGI [46]: 11.7 µM | GI50 [47]: 1.82 µM | TGI [47]: 5.07 µM | GI50 [48]: 1.87 µM | TGI [48]: 4.69 µM | GI50 [49]: 1.87 µM | TGI [49]: 3.67 µM | GI50 [50]: 2.46 µM | TGI [50]: 6.34 µM | GI50 [51]: 1.58 µM | TGI [51]: 3.05 µM | GI50 [52]: 1.83 µM | TGI [52]: 3.67 µM | GI50 [53]: 2.07 µM | TGI [53]: 5.7 µM | GI50 [54]: 1.57 µM | TGI [54]: 3.73 µM | GI50 [55]: 1.95 µM | TGI [55]: 3.9 µM
